Data on 3 compounds can be found in ChEMBL document CHEMBL1127504, “Synthesis and evaluation of 4-(2'-methoxyphenyl)-1-[2'-[N-(2"-pyridinyl)-p- iodobenzamido]ethyl]piperazine (p-MPPI): a new iodinated 5-HT1A ligand” (J Med Chem, 1994).

Molecules are shown by their SMILES.

Assay [1] deals with T1, 5-hydroxytryptamine receptor 1A (Rattus norvegicus, UniProt P19327).
T1 sequence (P19327 whole entry): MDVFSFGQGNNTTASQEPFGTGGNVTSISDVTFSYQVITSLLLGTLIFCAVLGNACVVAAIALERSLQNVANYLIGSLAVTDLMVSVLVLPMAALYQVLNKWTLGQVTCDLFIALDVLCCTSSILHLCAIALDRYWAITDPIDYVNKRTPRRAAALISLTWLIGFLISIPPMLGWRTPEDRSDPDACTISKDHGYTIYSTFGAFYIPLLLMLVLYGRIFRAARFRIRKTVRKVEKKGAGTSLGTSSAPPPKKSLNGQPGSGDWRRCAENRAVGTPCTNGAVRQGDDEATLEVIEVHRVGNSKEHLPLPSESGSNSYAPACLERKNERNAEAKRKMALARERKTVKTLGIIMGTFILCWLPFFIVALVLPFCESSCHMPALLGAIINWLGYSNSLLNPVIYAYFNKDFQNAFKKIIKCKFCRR
Format: tissue-based, Hippocampus.

Assay [2] has as its target T1, 5-hydroxytryptamine receptor 1A. It counts as tissue-based, Hippocampus. This is another data set of the same source.
For assay [3] the target is unchanged. The assay is described as follows: biochemical.
Description: Inhibition of binding of [125I]8-OH-PIPAT ligand to 5-hydroxytryptamine 1A receptor of rat hippocampal homogenates
The target in assay [4] is T2, 5-hydroxytryptamine receptor 1A (Rattus norvegicus) (UniProt P19327).
T2 sequence (whole entry): T1 sequence (P19327 whole entry)
It counts as tissue-based. The note with it: Hippocampus.

As for `COc1ccccc1N1CCN(CCCCNC(=O)C23C[C@H]4C[C@@H](C2)C[C@@H](C3)C4)CC1`, in assay [1], binding was put at a Kd of 0.4 nM.

Consider `COc1ccccc1N1CCN(CCN(C(=O)c2ccc(I)cc2)c2ccccn2)CC1`, for which the Kd in assay [2] came to 0.3 nM.

In assay [3], `CCCN(C/C=C/I)C1CCc2cccc(O)c2C1` (centres undefined) returned a Ki of 0.38 nM. The compound further displayed a Bmax (fM (mg of protein)-1) in assay [4] of 310.
